Assay results from patent publication US11161830B2, “4-pyridone compound or salt thereof, and pharmaceutical composition and formulation including same” (priority 2017, dated 2021).
pIC50: −log10 of the molar value. “And” between values parts separate entries of the source, which are not always exact repeats. Equal values may be shown once. Read-outs that look alike come from different tables or passages of the source.

Columns and labels:
HBV genotype C = test: Test Example 3-1: in vivo efficacy study in PXB mouse (chimeric mouse with human hepatocytes); set-up: species or system hepatitis B virus; settings: orally 100 mg/kg twice a day for 14 days
Method: An in vivo efficacy study with a. PXB mouse (a chimeric mouse with human hepatocytes) was carried out in PhenixBio Co., Ltd. 27-Week-or-more-old male mice having body weights of 15 g or more after the elapse of 12 weeks from the infection with HBV genotype C were allocated into three groups (2 mice per group) and used.
The compounds of Examples 6-5 and 10-2 were each orally administered at 100 mg/kg twice a day for 14 days. The other group was taken as a control group for which administration was not carried out. A first administration day was taken as day 0, and before administration on day 0, day 3, Day 7, and day 10, and on day 14, the blood was collected from the orbital venous plexus under anesthesia with isoflurane. The serum was separated from the collected blood and purified with a QIAamp (registered trademark) DNA Blood Mini Kit (manufactured by QIAGEN). The amount of HBV-DNA in the obtained solution was absolutely quantified by a real-time PCR method. In addition, the amount of HBsAg and the amount of HBcrAg in the serum were each absolutely quantified by chemiluminescent enzyme immunoassay using Lumipulse (registered trademark) HBsAg-HQ (manufactured by Fujirebio Inc.) and Lumipulse (registered trademark) HBcrAg (manufactured by Fujirebio Inc.).

HBV (genotype AeUS) = test: Test Example 2-1: anti-HBV assay in PXB-cells (fresh human hepatocytes); format: cell-based, hepatitis B virus; settings: Hepatitis B virus, Hepatocyte, PXB-cells infected with HBV genotype AeUS, culture supernatant on day 32 post infection
Method: (§1) Using fresh human hepatocytes (PXB-cells, manufactured by PhenixBio Co., Ltd.) collected from a PXB mouse (a chimeric mouse with human hepatocytes), the anti-HBV activity of the representative compounds was evaluated in the following procedure.
(§2) The following was used as a medium:
(§3) DMEM (manufactured by Sigma)+0.25 μg/mL insulin (manufactured by Wako)+1% penicillin/streptomycin. (manufactured by Sigma)+20 mmol/L HEPES (manufactured by Sigma)+15 μg/mL L-proline (manufactured by Sigma)+50 nmol/L dexamethasone (manufactured by Sigma)+5 ng/mL EGF (manufactured by Peprotech)+0.1 mmol/L ascorbic acid 2-phosphate (manufactured by Wako)+10% FBS+2% DMSO
(§4) Each of the test compounds) was further added to the medium to prepare a test solution containing each of the test compounds at various concentrations.
(§5) (1) PXB-cells seeded at a seeding density of 2.1×10^5 cells/cm^2 in a 96-well microliter plate were incubated in a 5% CO2 incubator at 37° C. until a day on which the cells were infected.
(2) HBV (genotype AeUS) derived from a PXB mouse serum was suspended in the medium containing 4% PEG-8000, and added to the plate of (1) at about 10 copies/cell such that the PXB cells were infected (100 μL/well), and the plate was incubated in a 5% CO2 incubator at 37° C. for 1 day.
(§6) (3) The culture supernatant on day 1 post infection was removed and the cells were washed three times with DMEM containing 10% FBS and 1% penicillin/streptomycin. Then, the medium was added to the plate (100 μL/well) and the plate was incubated in a 5% CO2 incubator at 37° C. for 1 day.
(§7) (4) The culture supernatant on day 2 post infection was removed and the cells were washed three times with DMEM containing 10% FBS and 1% penicillin/streptomycin. Then, the medium was added to the plate (100 μL/well) and the plate was incubated in a 5% CO2 incubator at 37° C. for 5 days.
(§8) (5) The culture supernatant on day 7 post infection was removed, the medium was added to the plate (100 μL/well), and the plate was incubated in a 5% CO2 incubator at 37° C. for 5 days.
(§9) (6) The culture supernatant on day 12 post infection was removed, the medium was added to the plate (100 μL/well), and the plate was incubated in a 5% CO2 incubator at 37° C. for 5 days.
(§10) (7) The culture supernatant on day 17 post infection was removed, the test solution was added to the plate (100 μL/well), and the plate was incubated in a 5% CO2 incubator at 37° C. for 5 days. As a control without the compound added, the medium was added to the plate (100 μL/well) and the plate was incubated in a 5% CO2 incubator at 37° C. for 5 days.
as §10, with “(8)” for “(7)”, “22” for “17”
as §10, with “(9)” for “(7)”, “27” for “17”
(§11) (10) The culture supernatant on day 32 post infection was collected.
(§12) (11) The collected culture supernatant on day 32 post infection was purified with a QIAamp (registered trademark) DNA Blood Mini Kit (manufactured by QIAGEN). The amount of HBV-DNA in the obtained solution was absolutely quantified by a real-time PCR method. In addition, the amount of HBsAg in the culture supernatant was absolutely quantified by chemiluminescent enzyme immunoassay using Lumipulse (registered trademark) HBsAg-HQ (manufactured by Fujirebio Inc.). A relative viral load (%) with respect to a control without the compound added was each calculated. […]

HBV (genotype CAT) = test: Test Example 2-2: anti-HBV assay in PXB-cells (fresh human hepatocytes); format: cell-based; settings: Hepatitis B virus, Hepatocyte
Method: as §1, §2, §3, §4, §5
(2) A HBV (genotype CAT) prepared by transfecting an HBV plasmid into an HepG2 cell was suspended in the medium containing 4% PEG-8000, and added to the plate of (1) at about 30 copies/cell such that the PXB cells were infected (100 μL/well), and the plate was incubated in a 5% CO2 incubator at 37° C. for 1 day.
as §6, §7, §8, §9, §10
as §10, with “(8)” for “(7)”, “22” for “17”
as §10, with “(9)” for “(7)”, “27” for “17”
as §11
as §12, with “treated” for “purified”, “mixture of Buffer AL” for “QIAamp (registered trademark) DNA Blood Mini Kit”, “QIAGEN) and Proteinase K (manufactured by Invitrogen).” for “QIAGEN).”

[1] = Day 0 (before administration), individual mice

Row | SMILES | HBV-DNA in serum (HBV genotype C; [1]) | HBcrAg in serum (HBV genotype C; [1]) | HBsAg in serum (HBV genotype C; [1]) | HBV-DNA in serum (HBV genotype C; Day 3, individual mice) | HBcrAg in serum (HBV genotype C; Day 3, individual mice) | HBsAg in serum (HBV genotype C; Day 3, individual mice) | HBV-DNA in serum (HBV genotype C; Day 7, individual mice) | HBcrAg in serum (HBV genotype C; Day 7, individual mice) | HBsAg in serum (HBV genotype C; Day 7, individual mice) | HBV-DNA in serum (HBV genotype C; Day 10, individual mice) | HBsAg in serum (HBV genotype C; Day 10, individual mice) | HBV-DNA in serum (HBV genotype C; Day 14, individual mice) | HBcrAg in serum (HBV genotype C; Day 14, individual mice) | HBsAg in serum (HBV genotype C; Day 14, individual mice) | pIC50 (HBV (genotype AeUS); read-out: IC50 HBV-DNA) | pIC50 (HBV (genotype AeUS); read-out: IC50 HBsAg) | pIC50 (HBV (genotype CAT); read-out: IC50 HBV-DNA, PXB-cells infected with HBV genotype CAT, culture supernatant on day 32 post infection) | pIC50 (HBV (genotype CAT); read-out: IC50 HBsAg, PXB-cells infected with HBV genotype CAT, culture supernatant on day 32 post infection)
1 | COCCN1CCN(c2nc3ccc(-n4cc(C(=O)O)c(=O)cc4-c4ccc(N5CCCC5)c(Cl)c4)cc3s2)CC1 [Example 6-5, 6-(3-chloro-4-(pyrrolidin-1-yl)phenyl)-1-(2-(4-(2-methoxyethyl)piperazine-1-yl)benzo[d]thiazol-6-yl)-4-oxo-1,4-dihydropyridine-3-carboxylic acid] | 2.3E+09 copies/mL and 2.1E+09 copies/mL | 4.5E+08 U/mL and 2.9E+08 U/mL | 3,578 IU/mL and 2,370 IU/mL | 8.7E+08 copies/mL and 7.1E+08 copies/mL | 1.5E+08 U/mL and 9.7E+07 U/mL | 781 IU/mL and 357 IU/mL | 2.7E+08 copies/mL and 2.9E+08 copies/mL | 8.7E+07 U/mL and 7.7E+07 U/mL | 570 IU/mL and 345 IU/mL | 3.4E+08 copies/mL and 6.3E+08 copies/mL | 588 IU/mL and 355 IU/mL | 3.3E+08 copies/mL and 8.4E+08 copies/mL | 7.5E+07 U/mL and 9.1E+07 U/mL | 540 IU/mL and 349 IU/mL | > 8.10 | 7.80 | 7.12 | 7.21
2 | COC[C@H]1CCCN1c1nc2ccc(-n3cc(C(=O)O)c(=O)cc3-c3ccc(N4CC[C@@H](OC)C4)cc3)cc2s1 [Example 10-2, 1-(2-((R)-2-(methoxymethyl)pyrrolidin-1-yl)benzo[d]thiazol-6-yl)-6-(4-((R)-3-methoxypyrrolidin-1-yl)phenyl)-4-oxo-1,4-dihydropyridine-3-carboxylic acid] | 1.5E+09 copies/mL and 3.2E+09 copies/mL | 2.7E+08 U/mL and 4.1E+08 U/mL | 2,930 IU/mL and 2,629 IU/mL | 1.0E+09 copies/mL and 1.4E+09 copies/mL | 8.8E+07 U/mL and 1.4E+08 U/mL | 638 IU/mL and 564 IU/mL | 6.9E+08 copies/mL and 4.7E+08 copies/mL | 7.5E+07 U/mL and 7.3E+07 U/mL | 450 IU/mL and 429 IU/mL | 8.4E+08 copies/mL and 6.4E+08 copies/mL | 476 IU/mL and 407 IU/mL | 9.6E+08 copies/mL and 1.3E+09 copies/mL | 7.8E+07 U/mL and 9.8E+07 U/mL | 522 IU/mL and 477 IU/mL | 7.74 | 7.66 | – | –
